Drawing on patent publication US9133148B2, “Carbamate compounds and of making and using same” (Abide Therapeutics, Inc., priority 2012, dated 2015), this text covers IC50 and inhibition for 22 compounds.

Holding throughout (assay type): biochemical
For assay [1], the target named is T1, FAAH (Mus musculus (Mouse), UniProt O08914). Nature of the assay: In vitro competitive activity-based protein profiling (FP-Rh), mouse FAAH. Conditions: mouse brain membrane proteome, competitive ABPP. As to the method:
(§1) In Vitro Competitive Activity-Based Protein Profiling.
(§2) Proteomes (mouse brain membrane fraction or cell lysates) ([…], 1.0 mg/mL total protein concentration) were preincubated with varying concentrations of inhibitors at 37° C. After 30 min, FP-Rh (1.0 μL, 50 μM in DMSO) was added and the mixture was incubated for another 30 min at 37° C. Reactions were quenched with SDS loading buffer (50 μL—4×) and run on SDS-PAGE.

Another assay addresses Human MAGL (Homo sapiens (Human), UniProt Q99685). Nature of the assay: Competitive ABPP with recombinant human MAGL expressed in HEK293T cells. Conditions: hMAGL in HEK293T cell lysates. As to the method:
as §2
Recombinant Expression of Human MAGL in HEK293T Cells.
Cell lysates were diluted with mock proteomes for use in competitive ABPP experiments.

The target of assay [2] is T2, ABHD6 (Mus musculus (Mouse), UniProt Q8R2Y0). Nature of the assay: In vitro competitive activity-based protein profiling (FP-Rh), mouse ABHD6. Conditions: mouse brain membrane proteome, competitive ABPP. The procedure:
as §1, §2

Assay [3] deals with T3, MAGL (Mus musculus (Mouse), UniProt O35678). The assay is described as follows: In vitro competitive activity-based protein profiling (FP-Rh), mouse MAGL. Conditions: mouse brain membrane proteome, competitive ABPP. The procedure: as §1, §2
Assay [4] has as its target T1, FAAH. Nature of the assay: Competitive ABPP, % inhibition at 1 uM, FAAH. As to the method: as §1
Proteomes (mouse brain membrane fraction or cell lysates) ([…], 1.0 mg/mL total protein concentration) were preincubated with varying concentrations of inhibitors at 37° C. After 30 min, FP-Rh (1.0 μL, 50 μM in DMSO) was added and the mixture was incubated for another 30 min at 37° C. Reactions were quenched with SDS loading buffer (50 μL—4×) and run on SDS-PAGE. Following gel imaging, serine hydrolase activity was determined by measuring fluorescent intensity of gel bands corresponding to MAGL, ABHD6 and FAAH using ImageJ 1.43u software.

The target of assay [5] is T2, ABHD6. The assay is described as follows: Competitive ABPP, % inhibition at 1 uM, ABHD6. As to the method: as §1, §2
The target in assay [6] is T3, MAGL. The assay is described as follows: Competitive ABPP, % inhibition at 1 uM, MAGL. As to the method:
as §1, §2

Each structure is given as a SMILES string.

T1 sequence (O08914 whole entry): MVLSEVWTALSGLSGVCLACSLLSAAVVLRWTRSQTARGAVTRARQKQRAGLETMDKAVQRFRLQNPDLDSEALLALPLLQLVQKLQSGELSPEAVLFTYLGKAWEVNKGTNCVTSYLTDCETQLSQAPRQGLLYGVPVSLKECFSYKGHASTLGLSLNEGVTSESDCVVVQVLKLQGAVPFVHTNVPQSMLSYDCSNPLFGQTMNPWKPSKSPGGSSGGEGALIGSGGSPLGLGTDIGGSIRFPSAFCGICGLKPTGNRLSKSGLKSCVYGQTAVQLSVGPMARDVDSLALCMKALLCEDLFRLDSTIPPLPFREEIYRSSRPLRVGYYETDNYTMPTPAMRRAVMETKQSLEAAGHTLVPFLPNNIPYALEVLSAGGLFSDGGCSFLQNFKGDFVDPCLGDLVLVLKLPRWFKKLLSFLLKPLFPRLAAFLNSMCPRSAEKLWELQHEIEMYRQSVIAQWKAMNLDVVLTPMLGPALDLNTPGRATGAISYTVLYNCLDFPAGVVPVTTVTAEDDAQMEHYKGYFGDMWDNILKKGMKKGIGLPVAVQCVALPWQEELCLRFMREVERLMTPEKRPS
T2 sequence (Q8R2Y0 whole entry): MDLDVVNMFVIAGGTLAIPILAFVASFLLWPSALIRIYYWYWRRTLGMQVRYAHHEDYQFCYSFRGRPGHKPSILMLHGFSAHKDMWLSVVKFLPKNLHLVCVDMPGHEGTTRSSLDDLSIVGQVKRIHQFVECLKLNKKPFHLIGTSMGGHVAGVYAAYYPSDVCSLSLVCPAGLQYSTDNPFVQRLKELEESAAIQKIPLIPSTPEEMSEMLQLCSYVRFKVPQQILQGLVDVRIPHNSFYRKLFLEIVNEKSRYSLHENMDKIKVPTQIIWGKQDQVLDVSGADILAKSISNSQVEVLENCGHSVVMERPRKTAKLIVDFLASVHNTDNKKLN
T3 sequence (O35678 whole entry): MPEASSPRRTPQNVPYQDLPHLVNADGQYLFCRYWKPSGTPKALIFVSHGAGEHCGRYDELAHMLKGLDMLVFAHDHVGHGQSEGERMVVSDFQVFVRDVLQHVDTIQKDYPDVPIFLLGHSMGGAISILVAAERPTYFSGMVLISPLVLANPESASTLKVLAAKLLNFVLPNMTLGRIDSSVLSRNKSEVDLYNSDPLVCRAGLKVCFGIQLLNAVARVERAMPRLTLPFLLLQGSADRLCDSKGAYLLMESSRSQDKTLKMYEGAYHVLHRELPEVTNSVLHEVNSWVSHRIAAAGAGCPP
Sequence of Human MAGL (Q99685 whole entry): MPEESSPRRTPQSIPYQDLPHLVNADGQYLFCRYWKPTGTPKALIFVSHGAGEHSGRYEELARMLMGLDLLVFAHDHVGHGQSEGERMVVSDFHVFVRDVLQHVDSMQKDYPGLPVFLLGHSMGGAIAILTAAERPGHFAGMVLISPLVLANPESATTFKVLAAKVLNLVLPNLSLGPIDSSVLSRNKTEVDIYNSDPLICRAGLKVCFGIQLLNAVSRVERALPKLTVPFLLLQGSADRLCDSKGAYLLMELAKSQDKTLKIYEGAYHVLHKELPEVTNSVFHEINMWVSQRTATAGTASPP

Turning to `O=C(OC(C(F)(F)F)C(F)(F)F)N1CCC(=C(c2ccc3c(c2)OCO3)c2ccc3c(c2)OCO3)CC1` [Example 1d, 1,1,1,3,3,3-hexafluoropropan-2-yl 4-(bis(benzo[d][1,3]dioxol-5-yl)methylene)piperidine-1-carboxylate], the IC50 is > 10000 nM on FAAH [1], < 0.1 µM on Human MAGL, 100 to 1000 nM at ABHD6 [2] and < 100 nM on MAGL [3].

On to `O=C(OC(C(F)(F)F)C(F)(F)F)N1CCN(C(c2ccc3c(c2)CCO3)c2ccc3c(c2)CCO3)CC1` [Example 2e, 1,1,1,3,3,3-hexafluoropropan-2-yl 4-(bis(2,3-dihydrobenzofuran-5-yl)methyl)piperazine-1-carboxylate], for which the IC50 on FAAH [1] is > 10000 nM; on Human MAGL, < 0.1 µM; on ABHD6 [2] it was 100 to 1000 nM; at MAGL [3], < 100 nM.

Take `O=C(OC(C(F)(F)F)C(F)(F)F)N1CCN(C(c2ccc3c(c2)OC(F)(F)O3)c2ccc3c(c2)OC(F)(F)O3)CC1` [Example 2f, 1,1,1,3,3,3-hexafluoropropan-2-yl 4-(bis(2,2-difluorobenzo[d][1,3]-dioxol-5-yl)methyl)piperazine-1-carboxylate]: the IC50 on FAAH [1] is > 10000 nM; on Human MAGL, < 0.1 µM; at ABHD6 [2] it was > 1000 nM; on MAGL [3], < 100 nM.

As to `O=C(OC(C(F)(F)F)C(F)(F)F)N1CCN(Cc2ccc(-c3ccccc3)cc2)CC1` [Example 3b, 1,1,1,3,3,3-hexafluoropropan-2-yl 4-([1,1′-biphenyl]-4-ylmethyl)-piperazine-1-carboxylate], the half-maximal inhibitory concentration (IC50) at FAAH [1] was > 10000 nM; on Human MAGL it was < 0.1 µM; at ABHD6 [2], > 1000 nM; at MAGL [3] it was 100 to 1000 nM.

Regarding `O=C(OC(C(F)(F)F)C(F)(F)F)N1CCN(C(=O)c2ccc(-c3ccccc3)cc2)CC1` [Example 3c, 1,1,1,3,3,3-hexafluoropropan-2-yl 4-([1,1′-biphenyl]-4-carbonyl)-piperazine-1-carboxylate], the IC50 at FAAH [1] is > 10000 nM; at Human MAGL, > 1 µM; on ABHD6 [2], > 1000 nM; at MAGL [3], > 1000 nM.

With `COc1ccc(N2CCN(C(=O)OC(C(F)(F)F)C(F)(F)F)CC2)cc1` [Example 3e, 1,1,1,3,3,3-hexafluoropropan-2-yl 4-(4-methoxyphenyl)piperazine-1-carboxylate], the IC50 at FAAH [1] was > 10000 nM; at Human MAGL it was 0.1 to 1 µM; at ABHD6 [2], 100 to 1000 nM; on MAGL [3], > 1000 nM.

Consider `Cc1cc(N2CCN(C(=O)OC(C(F)(F)F)C(F)(F)F)CC2)c2ccccc2n1` [Example 3h, 1,1,1,3,3,3-hexafluoropropan-2-yl 4-(2-methylquinolin-4-yl)piperazine-1-carboxylate], for which the IC50 at FAAH [1] was > 10000 nM; at Human MAGL, < 0.1 µM; on ABHD6 [2] it was > 1000 nM; at MAGL [3], > 1000 nM.

On to `CN(Cc1ccc2c(c1)OCO2)C(=O)OC(C(F)(F)F)C(F)(F)F` [Example 3i, 1,1,1,3,3,3-hexafluoropropan-2-yl(benzo[d][1,3]dioxol-5-ylmethyl)-(methyl)carbamate], for which the IC50 on FAAH [1] is > 10000 nM; on Human MAGL, 0.1 to 1 µM; on ABHD6 [2], > 1000 nM; on MAGL [3], 100 to 1000 nM.

With `Cc1nc(-c2cccc(CN(C)C(=O)OC(C(F)(F)F)C(F)(F)F)c2)no1` [Example 3j, 1,1,1,3,3,3-hexafluoropropan-2-yl methyl(3-(5-methyl-1,2,4-oxadiazol-3-yl)benzyl)carbamate], the IC50 was > 10000 nM on FAAH [1], < 0.1 µM on Human MAGL, 100 to 1000 nM at ABHD6 [2] and 100 to 1000 nM on MAGL [3].

Turning to `O=C(OC(C(F)(F)F)C(F)(F)F)N1CCN(S(=O)(=O)c2ccccc2)CC1` [Example 4a, 1,1,1,3,3,3-hexafluoropropan-2-yl 4-(phenylsulfonyl)piperazine-1-carboxylate], the IC50 on FAAH [1] was > 10000 nM; on Human MAGL, 0.1 to 1 µM; on ABHD6 [2], 100 to 1000 nM; at MAGL [3] it was 100 to 1000 nM.

`Cc1ccc(S(=O)(=O)N2CCN(C(=O)OC(C(F)(F)F)C(F)(F)F)CC2)cc1` [Example 4b, 1,1,1,3,3,3-hexafluoropropan-2-yl 4-tosylpiperazine-1-carboxylate]: the IC50 on FAAH [1] is > 10000 nM; on Human MAGL, < 0.1 µM; on ABHD6 [2] it was 100 to 1000 nM; on MAGL [3] it was < 100 nM.

Regarding `N#Cc1ccc(S(=O)(=O)N2CCN(C(=O)OC(C(F)(F)F)C(F)(F)F)CC2)cc1` [Example 4d, 1,1,1,3,3,3-hexafluoropropan-2-yl 4-((4-cyanophenyl)sulfonyl)-piperazine-1-carboxylate], the IC50 on FAAH [1] was > 10000 nM; on Human MAGL, 0.1 to 1 µM; on ABHD6 [2], > 1000 nM; on MAGL [3] it was 100 to 1000 nM.

As for `CC(=O)Nc1ccc(S(=O)(=O)N2CCN(C(=O)OC(C(F)(F)F)C(F)(F)F)CC2)cc1` [Example 4e, 1,1,1,3,3,3-hexafluoropropan-2-yl 4-((4-acetamidophenyl)sulfonyl)-piperazine-1-carboxylate], the IC50 at FAAH [1] is > 10000 nM; at Human MAGL it was > 1 µM; at ABHD6 [2], > 1000 nM; at MAGL [3] it was > 1000 nM.

`CC(C)c1cc(C(C)C)c(S(=O)(=O)N2CCN(C(=O)OC(C(F)(F)F)C(F)(F)F)CC2)c(C(C)C)c1` [Example 4f, 1,1,1,3,3,3-hexafluoropropan-2-yl 4-((2,4,6-triisopropylphenyl)-sulfonyl)piperazine-1-carboxylate]: the IC50 was > 10000 nM on FAAH [1], > 1 µM on Human MAGL, > 1000 nM on ABHD6 [2] and > 1000 nM at MAGL [3].

Consider `Cc1ccccc1S(=O)(=O)N1CCN(C(=O)OC(C(F)(F)F)C(F)(F)F)CC1` [Example 4g, 1,1,1,3,3,3-hexafluoropropan-2-yl 4-(o-tolylsulfonyl)piperazine-1-carboxylate], for which the IC50 was > 10000 nM at FAAH [1], 0.1 to 1 µM on Human MAGL, 100 to 1000 nM on ABHD6 [2] and 100 to 1000 nM at MAGL [3].

With `O=C(OC(C(F)(F)F)C(F)(F)F)N1CCN(S(=O)(=O)c2ccc3ccccc3c2)CC1` [Example 4h, 1,1,1,3,3,3-hexafluoropropan-2-yl 4-(naphthalen-2-ylsulfonyl)-piperazine-1-carboxylate], the IC50 at FAAH [1] is > 10000 nM; at Human MAGL it was > 1 µM; at ABHD6 [2], > 1000 nM; on MAGL [3] it was < 100 nM.

In the case of `Cc1cc(-c2cccnc2C)ccc1CN1CCN(C(=O)OC(C(F)(F)F)C(F)(F)F)CC1` [Example 11s, 1,1,1,3,3,3-hexafluoropropan-2-yl 4-[[2-methyl-4-(2-methylpyridin-3-yl)phenyl]methyl]piperazine-1-carboxylate], the inhibition at 1 µM at FAAH [4] is < 25%; at ABHD6 [5] it was 25 to 75%; on MAGL [6], 25 to 75%.

For `Cc1ncccc1-c1ccc(CN2CCN(C(=O)OC(C(F)(F)F)C(F)(F)F)CC2)c(F)c1` [Example 11t, 1,1,1,3,3,3-hexafluoropropan-2-yl 4-[[2-fluoro-4-(2-methylpyridin-3-yl)phenyl]methyl]piperazine-1-carboxylate], the figures for the inhibition at 1 µM at FAAH [4], at ABHD6 [5] and on MAGL [6] were < 25%, 25 to 75% and > 75%, respectively.

For the compound `Cc1ccccc1-c1ccc(CN2CCN(C(=O)OC(C(F)(F)F)C(F)(F)F)CC2)nc1C` [Example 11u, 1,1,1,3,3,3-hexafluoropropan-2-yl 4-[[6-methyl-5-(2-methylphenyl)pyridin-2-yl]methyl]piperazine-1-carboxylate], the inhibition at 1 µM on FAAH [4] was < 25%; at ABHD6 [5], 25 to 75%; at MAGL [6], 25 to 75%.

Take `Cc1nc(CN2CCN(C(=O)OC(C(F)(F)F)C(F)(F)F)CC2)ccc1-c1ccccc1F` [Example 11v, 1,1,1,3,3,3-hexafluoropropan-2-yl 4-[[5-(2-fluorophenyl)-6-methyl-pyridin-2-yl]methyl]piperazine-1-carboxylate]: the inhibition at 1 µM on FAAH [4] is < 25%; on ABHD6 [5], > 75%; on MAGL [6], > 75%.

As for `Cc1nc(CN2CCN(C(=O)OC(C(F)(F)F)C(F)(F)F)CC2)ccc1-c1cccc(F)c1` [Example 11w, 1,1,1,3,3,3-hexafluoropropan-2-yl 4-[[5-(3-fluorophenyl)-6-methylpyridin-2-yl]methyl]piperazine-1-carboxylate], the inhibition at 1 µM on FAAH [4] is < 25%; on ABHD6 [5], 25 to 75%; at MAGL [6], > 75%.

Take `Cc1cccc(-c2ccc(CN3CCN(C(=O)OC(C(F)(F)F)C(F)(F)F)CC3)c(C)c2)n1` [Example 11z, 1,1,1,3,3,3-hexafluoropropan-2-yl 4-[[2-methyl-4-(6-methylpyridin-2-yl)phenyl]methyl]piperazine-1-carboxylate]: the inhibition at 1 µM on FAAH [4] was < 25%; at ABHD6 [5], 25 to 75%; on MAGL [6] it was 25 to 75%.
